How the values were obtained:
M-3 cells = assay: Comparative FACS analysis of M-3 cells treated with FITC-labelled foreign peptide by various methods; format: cell-based, murine
M-3 melanoma metastases = assay: Curing of DBA/2 mice having M-3 melanoma metastases with vaccine of foreign peptide-charged melanoma cells (therapeutic mouse model); format: in vivo
CT-26 cells = assay: Protection of Balb/c mice by pre-immunisation with vaccine of foreign peptide-charged CT-26 colon carcinoma cells (prophylactic mouse model); format: in vivo; details: for animals protected: vaccinated twice s.c. 10^5 cells/mouse
[1] = tested on: highly tumorigenic variant of the M-3 cells; format: in vivo, mice; details: cells charged with peptide by means of TfpL/DNA complexes

“LFEAIEGFI [Leu Phe Glu Ala Ile Glu Gly Phe Ile, viral peptide derived from the influenza virus haemagglutinin, H2-K^d-ligand, used as foreign peptide to charge tumour cells]” was tested, and the “peptide binding to cells after washing step” value (M-3 cells; adjuvant mixing: 100 μg FITC-labelled peptide, 30 minutes ambient temperature, 10^6 M-3 cells) was “at most negligible”, the “detection of cell-bound FITC peptide by fluorescent microscopy” value (M-3 cells; pulsing, cytocentrifuged M-3 cells) was “practically undetectable” and the shift in fluorescence (M-3 cells; pulsing: incubation with 450 μg FITC peptide, 3 hours 37° C., M-3 cells) was “one power of ten”. The “shift in fluorescence compared with untreated cells or cells treated with polylysine alone” value (M-3 cells; transloading: 160 μg FITC-labelled peptide with TfpL/pL/DNA complex, 3 hours 37° C., M-3 cells) was ~2 powers of ten, the animals cured (M-3 melanoma metastases; 160 μg peptide charged onto M-3 cells by TfpL/DNA complexes, 5 day metastasis, 10^5 irradiated cells/animal s.c. twice) was 7 out of 8 and the “degree of systemic immune response of the tumour vaccine” value (M-3 melanoma metastases; adjuvant mixing of the peptide with the irradiated vaccines) was “inefficient”. For the same sequence, the animals cured (M-3 melanoma metastases; complexes containing 0.5 μg of peptide, five-day metastasis) was 2 out of 8, the mice cured (M-3 melanoma metastases; complexes containing 5 μg of peptide, five-day metastasis) was 4 out of 8 and the mice cured (M-3 melanoma metastases; complexes containing 50 μg of peptide, five-day metastasis) was 6 out of 8. The “mice able to eliminate the metastases” value (M-3 melanoma metastases; mice with metastases vaccinated with xenopeptised irradiated M-3 cells (TfpL and empty vector)) was 87.5%, the “degree of systemic immune response of the tumour vaccine” value (M-3 melanoma metastases; peptide administered to the cells by polylysine/transferrin, compared with incubation with peptide for 24 hours (pulsing)) was “significantly more marked” and the animals cured (M-3 melanoma metastases; vaccine of cells treated with 4 mg peptide by incubation (pulsing, 3 hours 37° C.)) was 1 out of 8. The “animals remained free from tumours” value (M-3 melanoma metastases; vaccine with 400 μg peptide applied by incubation (pulsing, 3 hours 37° C.)) was 3 out of the 8, the “vaccinated mice able to eliminate a tumour challenge” value (CT-26 cells; irradiated CT-26 vaccine alienised with peptide complexed with TfpL or pL) was 75% and the animals protected (CT-26 cells) was 6 out of 8.
“FFIGALEEI [Phe Phe Ile Gly Ala Leu Glu Glu Ile, synthetic peptide not hitherto found in nature, designed as ligand for MHC-I molecule of type H2-Kd]” was tested, and the “suitability of the peptide for producing an anti-tumour immunity” value (CT-26 cells; murine colon carcinoma CT-26, Balb/c) was “confirmed” and the animals protected (CT-26 cells) was 4 out of 8.
With “LPEAIEGFG [Leu Pro Glu Ala Ile Glu Gly Phe Gly, control peptide, anchor amino acids at positions 2 and 9 replaced by proline and glycine, reference compound]” the animals developed tumours [1] was 7 out of 8.
